Measurements taken from US20120232142A1, “NOVEL USE OF DIMETHYLFUMARATE” (KYUNGPOOK NATIONAL UNIVERSITY INDUSTRY ACADEMIC COOPERATION …, priority 2007, published 2012).
Counter-ions that a name gives are not always drawn.

Tests used:
[1] = test system: vascular smooth muscle cells; assay: Cell cycle analysis by FACS (PI staining) of vascular smooth muscle cells; format: cell-based, Sprague-Dawley rat; details: 5 μM pretreated 2 hours; growth factor and insulin 24 hours; stimulated without drug 8.7%
Protocol: For culturing vascular smooth muscle cells, vascular smooth muscle cells were isolated from the aorta of Sprague-Dawley rat and were first cultured. Vascular smooth muscle cells were cultured in a culturing apparatus having conditions of 37° C., 5% carbon dioxide until cells are grown up in culture medium containing 20% bovine fetal serum. Cells obtained from the procedure were transferred to a fresh culture dish to culture, and the initial cells subcultured up to 4 to 7 times were used in experiments. Vascular smooth muscle cells were analyzed for cell cycle employing FACS in order to confirm the effect of dimethyl fumarate on cell cycle. 5 μM dimethyl fumarate were pretreated for 2 hours in the vascular smooth muscle cells cultured in a medium containing 0.5% bovine fetal serum for 24 hours. Cells were treated with a growth factor and insulin to induce cells into replication phase, and reaction was performed for 24 hours. Then cells were collected and immobilized, and then their nucleuses were stained with propidium iodide (PI), and cell cycle was analyzed by employing FACS. Cell cycle was indicated as % by measuring 10,000 cells per each sample.

[2] = test system: pRb and CDK; assay: Western blot of Rb phosphorylation and CDK expression in vascular smooth muscle cells with PDGF; format: cell-based, Sprague-Dawley rat
Protocol: (§1) For culturing vascular smooth muscle cells, vascular smooth muscle cells were isolated from the aorta of Sprague-Dawley rat and were first cultured. Vascular smooth muscle cells were cultured in a culturing apparatus having conditions of 37° C., 5% carbon dioxide until cells are grown up in culture medium containing 20% bovine fetal serum. Cells obtained from the procedure were transferred to a fresh culture dish to culture, and the initial cells subcultured up to 4 to 7 times were used in experiments.
First cultured vascular smooth muscle cells were filled in about 80 to 90% of 60 mm tissue culture dish, and the cells were stood in a medium containing 0.5% FBS for 24 hours to render the cells to be interphase status. The group not treated with dimethyl fumarate was defined as a control, and experimental groups were divided into 3 groups treated with 5 μM dimethyl fumarate for 6, 12 and 24 hours, respectively, with or without PDGF. […] Separated proteins of each sample were quantitatively analyzed, 25 μg of proteins were mixed with sample buffer solution, the mixture was boiled for 5 minutes and then cooled, electrophoresis was performed for the resulting product in sodium dodecyl sulfate polyacrylamide gel to separate depending on size, then the product was transferred to a PVDF membrane, and then reacted with an antibody against pRb or Cyclin. […]

[3] = test system: p53 and p21; assay: Western blot of p53 and p21 expression in vascular smooth muscle cells; format: cell-based, Sprague-Dawley rat; details: 5 μM; 1, 2, 3, 6, 12 hours
Protocol: as §1
(§2) First cultured vascular smooth muscle cells were filled in about 80 to 90% of 60 mm tissue culture dish, and the cells were stood in a medium containing 0.5% FBS for 24 hours to render the cells to be interphase status. […]
(§3) Whole proteins were separated from vascular smooth muscle cells of each group by employing RIPA buffer solution (50 mM Tris HCl, 150 mM NaCl, 5 mM EDTA, 1% NP-40, 1 mM PMSF, 1 mM DTT, 1 mg/ml protease inhibitor). Separated proteins of each sample were quantitatively analyzed, 25 μg of proteins were mixed with sample buffer solution, the mixture was boiled for 5 minutes and then cooled, electrophoresis was performed for the resulting product in sodium dodecyl sulfate polyacrylamide gel to separate depending on size, then the product was transferred to a PVDF membrane, and then reacted with p53 or p21 antibody to confirm the expression thereof. […]

[4] = test system: AMPK; assay: Western blot of AMPK and ACC phosphorylation in vascular smooth muscle cells; format: cell-based, Sprague-Dawley rat; details: 5 μM; 1, 2, 3, 6, 12 hours
Protocol: as §1, §2
as §3, with “Tris-HCl,” for “Tris HCl,”, “[…]” for “μg”, “pAMPK” for “p53”, “pACC” for “p21”, “phosphorylation” for “the expression”

[5] = test system: neointima; assay: Neointima formation after balloon dilation in rats fed high fat diet (H & E staining); format: in vivo, Sprague-Dawley rats; details: 4 weeks
Protocol: In order to confirm whether dimethyl fumarate inhibits the formation of neointima after balloon dilation, experiments were performed with Sprague-Dawley rats fed with food containing dimethyl fumarate. The rats were bred while maintaining conditions that the temperature of the breeding room was maintained at 22±2° C., and brightness was automatically controlled in 12 hour cycles. Rats were categorized into a normal control group, a negative control group fed with only high fat diet (20% fat, 0.05% cholesterol), and an experiment group fed with food containing 0.5% or 1% dimethyl fumarate together with high fat diet (4 rats per each group), and experiments were progressed while breeding for 4 weeks in separate cages containing one rat per cage. Balloon dilation was performed after breeding rats for 2 weeks before the balloon dilation, and breeding was performed for 2 weeks more while continuing on feeding general diet and dimethyl fumarate diet, and then their aorta were separated and the formation of neointima was confirmed with H & E (hematoxylin and eosin) staining method.

[6] = test system: vascular smooth muscle cells; assay: Inhibition of PDGF-induced vascular smooth muscle cell proliferation (WST cell counting); format: cell-based, Sprague-Dawley rat; details: 1, 2, 5, 10 μM; PDGF 20 ng/ml; 48 hours; OD 450 nm
Protocol: For culturing vascular smooth muscle cells, vascular smooth muscle cells were isolated from the aorta of Sprague-Dawley rat and were first cultured. Vascular smooth muscle cells were cultured in a culturing apparatus having conditions of 37° C., 5% carbon dioxide until cells are grown up in culture medium containing 20% bovine fetal serum. Cells obtained from the procedure were transferred to a fresh culture dish to culture, and the initial cells subcultured up to 4 to 7 times were used in experiments. First cultured vascular smooth muscle cells were cultured in 96-well culture dish, and when growth reached 70%, they were transferred to a medium containing 0.5% bovine fetal serum, and then cultured for 24 hours and the cells was stood at interphase status. […] The number of viable cells was measured employing WST cell counting kit (WAKO, Japan). A reagent for confirming cell proliferation was treated thereto, reaction was further performed for 4 hours, and then optical density was measured at 450 nm with ELISA reader to investigate the ability of proliferating cells. The results of the experiments were shown by taking an average from values measured in more than three separate experiments.

COC(=O)/C=C/C(=O)OC [dimethyl fumarate]
cells in replication phase status [1]: 3.4% | expression of CDK ([2]; 5 μM pretreated 2 hours, then PDGF): more inhibited | phosphorylation of Rb promoted by a growth factor or CDK ([2]; 5 μM, 6, 12 and 24 hours, with or without PDGF): inhibits | expression of p21 [3]: increased | expression of p53 [3]: increased | activity (phosphorylation) of AMPK [4]: initially increased | phosphorylation of ACC [4]: continuously increased | formation of neointima after balloon dilation ([5]; food containing 0.5% dimethyl fumarate with high fat diet): certainly decreased | formation of neointima after balloon dilation ([5]; food containing 1% dimethyl fumarate with high fat diet): certainly decreased | cell proliferation increased by platelet derived growth factor [6]: inhibited as the concentration of dimethyl fumarate was increased
